Test results from patent publication US20160343958A1, “ORGANIC TRANSISTOR, COMPOUND, ORGANIC SEMICONDUCTOR MATERIAL FOR NON-LIGHT-EMITTING ORGANIC SEMICONDUCTOR DEVICE, MATERIAL FOR ORGANIC TRANSISTOR, COATING SOLUTION FOR NON-LIGHT-EMITTING ORGANIC SEMICONDUCTOR DEVICE, AND ORGANIC SEMICONDUCTOR FILM FOR NON-LIGHT-EMITTING ORGANIC SEMICONDUCTOR DEVICE” (FUJIFILM Corporation, priority 2014, published 2016).

Experiment: Solubility in toluene
Format: physicochemical
Details: 5-level grade A-E
Description: Each of the compounds of the present invention or comparative compounds (2% by mass, 1% by mass, 0.5% by mass, or 0.1% by mass each) was mixed with toluene (1 mL), heated to 100° C., and then left to stand for 30 minutes at room temperature. […] For practical use, the compound needs to be evaluated to be A, B, C, or D. The compound preferably needs to be evaluated to be A, B, or C, more preferably needs to be evaluated to be A or B, and particularly preferably needs to be evaluated to be A.
E: Precipitation occurred at 0.1% by mass.
For `CCCc1ccc2c(c1)sc1c2ccc2c3ccc(CCC)cc3sc21` [Compound example 1], the Solubility was “B (Precipitation did not occur at 1% by mass but occurred at 2% by mass.)”.
In the case of `CCCCCc1ccc2c(c1)sc1c2ccc2c3ccc(CCCCC)cc3sc21` [Compound example 3], the Solubility is reported as “A (Precipitation did not occur at 2% by mass.)”.
With `CCCCCCCCc1ccc2c(c1)sc1c2ccc2c3ccc(CCCCCCCC)cc3sc21` [Compound example 6] the Solubility was “A (Precipitation did not occur at 2% by mass.)”.
With `CCCCCCCCCCCCc1ccc2c(c1)sc1c2ccc2c3ccc(CCCCCCCCCCCC)cc3sc21` [Compound example 10] the Solubility was “A (Precipitation did not occur at 2% by mass.)”.
With `CCCCCCCCCCCCCCCCCCc1ccc2c(c1)sc1c2ccc2c3ccc(CCCCCCCCCCCCCCCCCC)cc3sc21` [Compound example 16] the Solubility was “B (Precipitation did not occur at 1% by mass but occurred at 2% by mass.)”.
With `CCCCCCCCc1ccc2cc3c(cc2c1)sc1c3ccc2c3cc4ccc(CCCCCCCC)cc4cc3sc21` [Compound example 20] the Solubility was “B (Precipitation did not occur at 1% by mass but occurred at 2% by mass.)”.
In the case of `CCCCCCCCCCCCc1ccc2cc3c(cc2c1)sc1c3ccc2c3cc4ccc(CCCCCCCCCCCC)cc4cc3sc21` [Compound example 24], the Solubility is reported as “B (Precipitation did not occur at 1% by mass but occurred at 2% by mass.)”.
For `CCCCCCCCc1ccc(-c2ccc3c(c2)sc2c3ccc3c4ccc(-c5ccc(CCCCCCCC)cc5)cc4sc32)cc1` [Compound example 34], the Solubility was “B (Precipitation did not occur at 1% by mass but occurred at 2% by mass.)”.
With `CCCCCCCCc1ccc(-c2ccc3c(c2)sc2c3ccc3c4ccc(-c5ccc(CCCCCCCC)s5)cc4sc32)s1` [Compound example 62] the Solubility was “B (Precipitation did not occur at 1% by mass but occurred at 2% by mass.)”.
For `CCCCCCCC/C=C/c1ccc2c(c1)sc1c2ccc2c3ccc(/C=C/CCCCCCCC)cc3sc21` [Compound example 298], the Solubility was “B (Precipitation did not occur at 1% by mass but occurred at 2% by mass.)”.
In the case of `CCCCCCC#Cc1ccc2c(c1)sc1c2ccc2c3ccc(C#CCCCCCC)cc3sc21` [Compound example 310], the Solubility is reported as “B (Precipitation did not occur at 1% by mass but occurred at 2% by mass.)”.
In the case of `CCCCCCCCOc1ccc2c(c1)sc1c2ccc2c3ccc(OCCCCCCCC)cc3sc21` [Compound example 326], the Solubility is reported as “B (Precipitation did not occur at 1% by mass but occurred at 2% by mass.)”.
For `CCCCCCCCCCCCc1ccc2cc3c(cc2c1)sc1c3ccc2c3ccc(CCCCCCCCCCCC)cc3sc21` [Compound example 344], the Solubility was “B (Precipitation did not occur at 1% by mass but occurred at 2% by mass.)”.
In the case of `CCCCCCCCCCCCc1ccc2c(c1)sc1c2ccc2c3ccccc3sc21` [Compound example 358], the Solubility is reported as “B (Precipitation did not occur at 1% by mass but occurred at 2% by mass.)”.
With `CCCCCCCCCCCCc1ccc(-c2ccc3c(c2)sc2c3ccc3c4ccccc4sc32)cc1` [Compound example 372] the Solubility was “B (Precipitation did not occur at 1% by mass but occurred at 2% by mass.)”.
In the case of `CCCCCCCCCCCCc1ccc(-c2ccc3c(c2)sc2c3ccc3c4ccccc4sc32)s1` [Compound example 386], the Solubility is reported as “B (Precipitation did not occur at 1% by mass but occurred at 2% by mass.)”.
In the case of `CCCCCCCCc1ccc2sc3c(ccc4c5cc(CCCCCCCC)ccc5sc43)c2c1` [Compound example 396], the Solubility is reported as “B (Precipitation did not occur at 1% by mass but occurred at 2% by mass.)”.
In the case of `CCCCC(CC)Cc1ccc2c(c1)sc1c2ccc2c3ccc(CC(CC)CCCC)cc3sc21` (stereo not shown) [Compound example 407], the Solubility is reported as “A (Precipitation did not occur at 2% by mass.)”.
In the case of `CCCCCCCCc1ccc2c(c1)oc1c2ccc2c3ccc(CCCCCCCC)cc3oc21` [Compound example 416], the Solubility is reported as “C (Precipitation did not occur at 0.5% by mass but occurred at 1% by mass.)”.
With `C[Si](C)(C)C#Cc1c(C#C[Si](C)(C)C)c2c3ccc(-c4cccs4)cc3sc2c2sc3cc(-c4cccs4)ccc3c12` [Compound example 427] the Solubility was “D (Precipitation did not occur at 0.1% by mass but occurred at 0.5% by mass.)”.
With `c1ccc2c(c1)sc1c2ccc2c3ccccc3sc21` [comparative compound 1, reference compound] the Solubility was “E (Precipitation occurred at 0.1% by mass.)”.
With `Cc1ccc2c(c1)sc1c2ccc2c3ccc(C)cc3sc21` [comparative compound 2, reference compound] the Solubility was “E (Precipitation occurred at 0.1% by mass.)”.
With `c1ccc2c(c1)sc1c2ccc2c3cccc(-c4ccc5c6ccccc6c6ccccc6c5c4)c3sc21` [comparative compound 6, reference compound] the Solubility was “E (Precipitation occurred at 0.1% by mass.)”.
In the case of `c1ccc(-c2cccc(-c3ccc4sc5c(ccc6c7cc(-c8cccc(-c9ccccc9)c8)ccc7sc65)c4c3)c2)cc1` [compound 3, reference compound], the Solubility is reported as “E (Precipitation occurred at 0.1% by mass.)”.
In the case of `c1ccc(-c2ccc3sc4c5sc6ccc(-c7ccccc7)cc6c5c(-c5ccccc5)c(-c5ccccc5)c4c3c2)cc1` [compound 4, reference compound], the Solubility is reported as “E (Precipitation occurred at 0.1% by mass.)”.
